Results on one compound are retold here after patent publication US8598175B2, “Heteroarylamide pyrimidone derivatives” (Sanofi, priority 2007, dated 2013).

Data set [1] concerns the target GSK3β (Homo sapiens, UniProt P49841). The experiment in a line: Inhibitory activity against GSK3β (33P-ATP phosphorylation of prephosphorylated GS1 peptide, two protocols). The class given is biochemical. The following applies: first or second protocol not specified. As for the experimental part:
Inhibitory Activity of the Medicament of the Present Invention Against GSK3β
Two different protocols can be used.
In a first protocol: 7.5 μM of prephosphorylated GS1 peptide and 10 μM ATP (containing 300,000 cpm of ^33P-ATP) were incubated in 25 mM Tris-HCl, pH 7.5, 0.6 mM DTT, 6 mM MgCl2, 0.6 mM EGTA, 0.05 mg/ml BSA buffer for 1 hour at room temperature in the presence of GSK3beta (total reaction volume: 100 microliters).
In a second protocol: 4.1 μM of prephosphorylated GS1 peptide and 42 μM ATP (containing 260,000 cpm ^33P-ATP) were incubated in 80 mM Mes-NaOH, pH 6.5, 1 mM Mg acetate, 0.5 mM EGTA, 5 mM 2-mercaptoethanol, 0.02% Tween 20, 10% glycerol buffer for 2 hours at room temperature in the presence of GSK3beta.
Inhibitors were solubilized in DMSO (final solvent concentration in the reaction medium, 1%).
The reaction was stopped with 100 microliters of a solution made of 25 g polyphosphoric acid (85% P2O5), 126 ml 85% H3PO4, […] to 500 ml and then diluted to 1:100 before use. An aliquot of the reaction mixture was then transferred to Whatman P81 cation exchange filters and rinsed with the solution described above. Incorporated ^33P radioactivity was determined by liquid scintillation spectrometry.
The phosphorylated GS-1 peptide had the following sequence: NH2-[…](P)EDEE-COOH. SEQ ID NO: 1 (Woodgett, J. R. (1989) Analytical Biochemistry 180, 237-241.

Chain of GSK3β (P49841 whole entry): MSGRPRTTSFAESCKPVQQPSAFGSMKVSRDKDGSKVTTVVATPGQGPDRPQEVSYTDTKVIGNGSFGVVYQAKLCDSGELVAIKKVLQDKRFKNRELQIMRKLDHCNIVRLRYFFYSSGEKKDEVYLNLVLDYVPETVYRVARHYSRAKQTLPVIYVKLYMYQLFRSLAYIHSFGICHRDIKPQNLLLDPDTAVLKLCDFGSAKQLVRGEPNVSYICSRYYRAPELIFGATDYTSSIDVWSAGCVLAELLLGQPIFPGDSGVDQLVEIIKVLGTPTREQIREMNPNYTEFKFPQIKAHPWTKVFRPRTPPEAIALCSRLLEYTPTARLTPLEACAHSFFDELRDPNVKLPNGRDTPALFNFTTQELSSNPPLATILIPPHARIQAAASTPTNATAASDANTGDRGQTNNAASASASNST

Take `Cn1c(CNC(=O)c2ccc3ncccc3n2)nc(-c2ccncn2)cc1=O` [compound 4, [1,5]Naphthyridine-2-carboxylic acid (1-methyl-6-oxo-1,6-dihydro-[4,4]bipyrimidinyl-2-ylmethyl)-amide]: the melting point lay in the range of 317 to 319 °C. The IC50 in data set [1] was 5 nM.

The IC50 is the concentration at which inhibition is half-maximal. The melting point is the temperature of the solid-liquid transition.
